Results as given in patent US20230293458A1, “MULTIBIOTIC AGENTS AND METHODS OF USING THE SAME” (Flagship Pioneering Innovations V, Inc., priority 2017, published 2023).

Experiments:
[1] = Assay 1. Stability of multibiotic agents in a buffer; assay type: physicochemical; parameters: key to Assay 1 (% Remaining @ 24 hours): A: <25% of the tested compound remaining; B: 25-75% of the tested compound remaining; C: >75% of the tested compound remaining; D: no change in the amount of the tested compound; conditions: for degradation in Assay 1 (in words): buffer stability; for Assay 1 (% Remaining @ 24 hours): phosphate buffer pH 2, 4, 6 and 8, RT, 2 μM, LC/MS/MS
Method: Assay 1. Stability of multibiotic agents in a buffer. This assay can be used for the assessment of the stability of a multibiotic agent at different physiological pH levels.
Compounds were diluted in DMSO, and the resulting solution was added in the appropriate quantity to phosphate buffer (pH levels 2, 4, 6, and 8) to reach a total sample concentration of 2 μM. Compounds were incubated at RT, and aliquots were removed at time points 0, 60, 120, 360 and 1440 minutes and analyzed for purity by LC/MS/MS.

[2] = Stability of multibiotic agents in Simulated Intestinal Fluid (SIF); assay type: in vitro ADME; conditions: simulated intestinal fluid pH 6.7 with pancreatin, 37° C., 1 μM
Outline: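 Compounds at 1 μM final (from 1 mM DMSO stock) incubated at 37 °C with agitation in fresh SIF (FaSSIF plus pancreatin in pH 6.7 phosphate buffer). Aliquots taken at T0 and regular intervals, quenched with 1 volume acetonitrile. Degradation rate determined by LC/MS.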

[3] = Stability of multibiotic agents in Simulated Gastric Fluid (SGF); assay type: in vitro ADME; conditions: simulated gastric fluid pH 1.6 with pepsin, 37° C., 1 μM
Outline: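 Compounds were incubated at 1 μM final at 37 °C in simulated gastric fluid containing NaCl, pH 1.6, with FaSSIF powder and 0.1 mg/mL pepsin. Aliquots were taken at T0 and at regular intervals and quenched with acetonitrile. Degradation rates were determined by LC/MS.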

[4] = Assay 4. Fecal Incubation Stability; assay type: in vitro ADME; conditions: fecal slurry in YCFA media, anaerobic, 1 or 10 μM
Method: Assay 4. Fecal Incubation Stability. This assay can be used to assess the stability of a multibiotic agent in a large intestine. All experiments performed in an anaerobic chamber containing 90% nitrogen, 5% hydrogen and 5% carbon dioxide. Fecal matter in a slurry (15% (w/v)) was added to 96 well plates containing YCFA media or other suitable media (1.6 mL). Compounds were added to each individual well to reach a final analyte concentration of 1 or 10 μM, and the material was mixed by pipetting. At predetermined timepoints a sample was removed, quenched with acetonitrile, and analyzed by LC/MS.

degradation in Assay 1 (in words) [1] | Assay 1 (% Remaining @ 24 hours) [1] | Structure (SMILES) | Assay 3 (SIF) (% @ Remaining 4 hours) [2] | Assay 2 (SGF) (% Remaining @ 4 hours) [3] | Assay 4 (% Remaining at 24 h) [4]
no apparent degradation | D | O=C(CCCc1ccccc1)OC1OC[C@@H](OC(=O)CCCc2ccccc2)[C@H](OC(=O)CCCc2ccccc2)[C@H]1OC(=O)CCCc1ccccc1 (mixture of isomers) [Example 24, [(3R,4S,5R)-4,5,6-tris(4-phenylbutanoyloxy)tetrahydropyran-3-yl] 4-phenylbutanoate] | – | – | –
no apparent degradation | D | CCCC(=O)OC1OC[C@@H](OC(=O)CCC)[C@H](OC(=O)CCC)[C@H]1OC(=O)CCC (mixture of isomers) [Example 29, [(3R,4S,5R)-4,5,6-tri(butanoyloxy)tetrahydropyran-3-yl] butanoate] | – | – | –
– | – | CCCC(=O)Oc1cc(OC(=O)CCC)c2c(c1)O[C@H](c1cc(OC(=O)CCC)c(OC(=O)CCC)c(OC(=O)CCC)c1)[C@H](OC(=O)c1cc(OC(=O)CCC)c(OC(=O)CCC)c(OC(=O)CCC)c1)C2 [Example 15, [(2R,3R)-5,7-di(butanoyloxy)-2-[3,4,5-tri(butanoyloxy)phenyl]chroman-3-yl] 3,4,5-tri(butanoyloxy)benzoate] | C (>75% of the tested compound remaining) | C (>75% of the tested compound remaining) | C (>75% of the tested compound remaining)
– | – | CC(=O)Oc1cc(OC(C)=O)c2c(c1)O[C@H](c1cc(OC(C)=O)c(OC(C)=O)c(OC(C)=O)c1)[C@H](OC(=O)c1cc(OC(C)=O)c(OC(C)=O)c(OC(C)=O)c1)C2 [Example 16, [(2R,3R)-5,7-diacetoxy-2-(3,4,5-triacetoxyphenyl)chroman-3-yl] 3,4,5-triacetoxybenzoate] | A (<25% of the tested compound remaining) | C (>75% of the tested compound remaining) | A (<25% of the tested compound remaining)
– | – | CCCC(=O)O[C@@H]1[C@@H](OC(=O)CCC)[C@@H](Oc2ccc(N)cc2C(=O)O)OC[C@H]1OC(=O)CCC [Example 20, 5-amino-2-[(2R,3R,4S,5R)-3,4,5-tri(butanoyloxy)tetrahydropyran-2-yl]oxy-benzoic acid] | C (>75% of the tested compound remaining) | C (>75% of the tested compound remaining) | A (<25% of the tested compound remaining)
no apparent degradation | D | CCCC(=O)O[C@@H]1[C@@H](OC(=O)CCC)[C@H](Oc2ccc(N)cc2C(=O)O)OC[C@H]1OC(=O)CCC [Example 21, 5-amino-2-[(2S,3R,4S,5R)-3,4,5-tri(butanoyloxy)tetrahydropyran-2-yl]oxy-benzoic acid] | C (>75% of the tested compound remaining) | C (>75% of the tested compound remaining) | –
– | – | CCCC(=O)Oc1ccc2c(c1)oc(=O)c1cc(OC(=O)CCC)c(OC(=O)CCC)cc12 [Example 52, 8,9-di(butanoyloxy)-6-oxo-benzo[c]chromen-3-yl] butanoate] | – | – | A (<25% of the tested compound remaining)
– | – | O=C(CCc1c[nH]c2ccccc12)Oc1ccc(/C=C/c2cc(OC(=O)CCc3c[nH]c4ccccc34)cc(OC(=O)CCc3c[nH]c4ccccc34)c2)cc1 [Example 71, [4-[(E)-2-[3,5-bis[3-(1H-indol-3-yl)propanoyloxy]phenyl]vinyl]phenyl] 3-(1H-indol-3-yl)propanoate] | C (>75% of the tested compound remaining) | C (>75% of the tested compound remaining) | C (>75% of the tested compound remaining)
– | – | CCCC(=O)O[C@H](C)CC(=O)O[C@H]1CO[C@H]2[C@@H]1OC[C@H]2OC(=O)C[C@@H](C)OC(=O)CCC [Example 79, [(3S,3aR,6R,6aR)-6-[(3R)-3-butanoyloxybutanoyl]oxy-2,3,3a,5,6,6a-hexahydrofuro[3,2-b]furan-3-yl] (3R)-3-butanoyloxybutanoate] | B (25-75% of the tested compound remaining) | C (>75% of the tested compound remaining) | B (25-75% of the tested compound remaining)
– | – | C=C1CC[C@H](OC(=O)[C@H](OC(=O)CCC)[C@@H](OC(=O)CCC)[C@H](OC(=O)CCC)[C@@H](COC(=O)CCC)OC(=O)CCC)C/C1=C/C=C1\CCC[C@]2(C)[C@@H]([C@H](C)CCCC(C)C)CC[C@@H]12 [Example 184, [(1S,3Z)-3-[(2E)-2-[(1R,3aS,7aR)-1-[(1R)-1,5-dimethylhexyl]-7a-methyl-2,3,3a,5,6,7-hexahydro-1H-inden-4-ylidene]ethylidene]-4-methylene-cyclohexyl] (2R,3S,4R,5R)-2,3,4,5,6-penta(butanoyloxy)hexanoate] | A (<25% of the tested compound remaining) | B (25-75% of the tested compound remaining) | –
– | – | C=C1CC[C@H](OC(=O)C2OCC[C@@H](C)O2)C/C1=C/C=C1\CCC[C@]2(C)[C@@H]([C@H](C)CCCC(C)C)CC[C@@H]12 (stereo partly drawn) [Example 186, [(1S,3Z)-3-[(2E)-2-[(1R,3aS,7aR)-1-[(1R)-1,5-dimethylhexyl]-7a-methyl-2,3,3a,5,6,7-hexahydro-1H-inden-4-ylidene]ethylidene]-4-methylene-cyclohexyl] (4R)-4-methyl-1,3-dioxane-2-carboxylate] | C (>75% of the tested compound remaining) | C (>75% of the tested compound remaining) | –
– | – | C=C1CC[C@H](OC(=O)C2(C)OCC[C@@H](C)O2)C/C1=C/C=C1\CCC[C@]2(C)[C@@H]([C@H](C)CCCC(C)C)CC[C@@H]12 (stereo partly drawn) [Example 187, [(1S,3Z)-3-[(2E)-2-[(1R,3aS,7aR)-1-[(1R)-1,5-dimethylhexyl]-7a-methyl-2,3,3a,5,6,7-hexahydro-1H-inden-4-ylidene]ethylidene]-4-methylene-cyclohexyl] (4R)-2,4-dimethyl-1,3-dioxane-2-carboxylate] | C (>75% of the tested compound remaining) | B (25-75% of the tested compound remaining) | –
